Data from patent publication US20110166223A1, “METHODS OF INHIBITING FGFR3 SIGNALING” (CEDARS-SINAI MEDICAL CENTER, priority 2008, published 2011).
Entries after “also recorded” stand apart in the source; their conditions may differ.

Legend:
[1] = target: T1, full-length FLAG-tagged K650E-FGFR3 (Homo sapiens, UniProt P22607, K650E); assay: Cell-free K650E-FGFR3 kinase assay with STAT1 as substrate; type: biochemical; details: immunopurified from CHO cells; FIG. 6
T1 construct: using full-length FLAG-tagged K650E-FGFR3 that was expressed in CHO cells; made in house; host or cells: CHO cells (transient transfection, anti-FLAG immunoprecipitation)
Description: FIG. 6, in accordance with an embodiment herein, depicts 4,4′,4″,4′″-[carbonyl-bis[imino-5,1,3-benzenetriyl bis-{carbonylimino}]]tetrakis-{benzene-1,3-disulfonic acid} inhibits K650E-FGFR3 in a kinase assay. Cell-free K650E-FGFR3 kinase assays were carried-out using full-length FLAG-tagged K650E-FGFR3 that was expressed in CHO cells, purified by immunoprecipitation with FLAG antibody and subjected to a kinase reaction with recombinant STAT1 as a substrate and 4,4′,4″,4′″-[carbonyl-bis[imino-5,1,3-benzenetriyl bis-{carbonylimino}]]tetrakis-{benzene-1,3-disulfonic acid} added to the kinase reaction. Cells transfected with plasmid encoding green fluorescent protein (GFP) serve as a negative control for the immunoprecipitation. […]
OPM2 and KMS11 cells were lysed in ice-cold immunoprecipitation buffer (50 mM Tris-HCl pH 7.4, 150 mM NaCl, 0.5% NP-40, 1 mM EDTA, 25 mM NaF) supplemented with proteinase inhibitors and 10 mM sodium orthovanadate. […] Western blotting signal was quantified by determining the integrated optical density (I.O.D.) of a given band using Scion Image software (Scion Corporation, Frederick, Mass.). […] FGFR3-mediated phosphorylation of STAT1 was detected by western blotting with P-STAT1^Y701 antibody (Cell Signaling). […]

[2] = Water solubility (statement); type: physicochemical
[3] = target: GSA subunit (Homo sapiens, UniProt P63092); details: Hohenegger, et al., 1998; cited from earlier work
Sequence of GSA subunit (P63092 whole entry): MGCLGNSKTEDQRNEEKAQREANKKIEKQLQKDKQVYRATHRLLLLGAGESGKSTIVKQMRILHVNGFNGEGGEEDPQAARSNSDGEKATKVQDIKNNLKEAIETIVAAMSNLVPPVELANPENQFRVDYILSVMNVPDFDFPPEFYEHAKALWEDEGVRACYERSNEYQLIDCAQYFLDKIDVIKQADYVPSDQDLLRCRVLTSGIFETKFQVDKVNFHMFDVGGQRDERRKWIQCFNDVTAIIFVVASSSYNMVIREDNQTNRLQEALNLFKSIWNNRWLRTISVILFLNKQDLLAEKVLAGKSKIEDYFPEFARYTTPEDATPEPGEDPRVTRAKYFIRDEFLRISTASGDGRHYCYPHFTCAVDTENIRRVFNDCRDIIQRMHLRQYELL

T1 sequence (P22607 23-806 K650E): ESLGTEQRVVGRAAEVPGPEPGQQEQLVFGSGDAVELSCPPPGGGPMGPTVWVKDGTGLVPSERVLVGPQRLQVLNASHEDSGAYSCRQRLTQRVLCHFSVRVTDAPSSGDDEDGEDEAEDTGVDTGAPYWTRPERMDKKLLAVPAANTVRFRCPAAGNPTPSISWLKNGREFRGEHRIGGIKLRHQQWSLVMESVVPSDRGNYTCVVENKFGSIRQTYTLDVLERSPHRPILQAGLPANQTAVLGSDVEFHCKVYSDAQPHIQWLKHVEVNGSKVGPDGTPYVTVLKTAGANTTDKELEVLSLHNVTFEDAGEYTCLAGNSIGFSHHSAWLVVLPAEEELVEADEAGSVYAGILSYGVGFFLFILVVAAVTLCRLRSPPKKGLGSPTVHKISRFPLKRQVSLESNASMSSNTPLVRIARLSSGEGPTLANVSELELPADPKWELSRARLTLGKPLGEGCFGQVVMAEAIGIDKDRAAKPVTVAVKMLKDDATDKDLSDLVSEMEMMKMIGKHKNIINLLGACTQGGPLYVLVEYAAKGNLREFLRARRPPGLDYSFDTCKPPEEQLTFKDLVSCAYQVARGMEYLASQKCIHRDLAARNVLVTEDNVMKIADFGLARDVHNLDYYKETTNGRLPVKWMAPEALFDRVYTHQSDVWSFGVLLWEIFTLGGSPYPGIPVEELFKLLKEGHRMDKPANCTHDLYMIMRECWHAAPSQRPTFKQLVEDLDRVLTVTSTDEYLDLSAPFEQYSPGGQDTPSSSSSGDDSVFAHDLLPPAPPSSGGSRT

SMILES: O=C(Nc1cc(C(=O)Nc2ccc(S(=O)(=O)O)cc2S(=O)(=O)O)cc(C(=O)Nc2ccc(S(=O)(=O)O)cc2S(=O)(=O)O)c1)Nc1cc(C(=O)Nc2ccc(S(=O)(=O)O)cc2S(=O)(=O)O)cc(C(=O)Nc2ccc(S(=O)(=O)O)cc2S(=O)(=O)O)c1 [NF449, 4,4′,4″,4′″-[carbonyl-bis[imino-5,1,3-benzenetriylbis-{carbonylimino}]]tetrakis-{benzene-1,3-disulfonic acid}]
- effect on K650E-FGFR3 kinase activity (Y701 phosphorylation of STAT1) [1]: inhibitory effect; also recorded: inhibited K650E-FGFR3 kinase activity
- water solubility [2]: water-soluble
- concentration needed to inhibit GSA [3]: 0.14 µM
